ChEMBL document CHEMBL4130357, “Developing potential agents against atherosclerosis: Design, synthesis and pharmacological evaluation of novel dual inhibitors of oxidative stress and Squalene Synthase activity” (Eur J Med Chem, 2017)
The source made the active and inactive calls. The rule behind the calls is not given here.

How the values were obtained:
Liver = assay: Antioxidant activity in heat-inactivated Fischer-344 rat hepatic microsomes assessed as protection against Fe2+/ascorbate-induced lipid peroxidation after 45 mins by TBAR-based spectrophotometry; assay type: functional, microsome; settings: Fischer-344, Liver, 0.75 h
[1] = biological target: T1, Prostaglandin G/H synthase 2 (Homo sapiens) (UniProt P35354); assay: Inhibition of recombinant human COX2 at 50 uM using arachidonic acid as substrate by ELISA
T1 sequence (whole entry): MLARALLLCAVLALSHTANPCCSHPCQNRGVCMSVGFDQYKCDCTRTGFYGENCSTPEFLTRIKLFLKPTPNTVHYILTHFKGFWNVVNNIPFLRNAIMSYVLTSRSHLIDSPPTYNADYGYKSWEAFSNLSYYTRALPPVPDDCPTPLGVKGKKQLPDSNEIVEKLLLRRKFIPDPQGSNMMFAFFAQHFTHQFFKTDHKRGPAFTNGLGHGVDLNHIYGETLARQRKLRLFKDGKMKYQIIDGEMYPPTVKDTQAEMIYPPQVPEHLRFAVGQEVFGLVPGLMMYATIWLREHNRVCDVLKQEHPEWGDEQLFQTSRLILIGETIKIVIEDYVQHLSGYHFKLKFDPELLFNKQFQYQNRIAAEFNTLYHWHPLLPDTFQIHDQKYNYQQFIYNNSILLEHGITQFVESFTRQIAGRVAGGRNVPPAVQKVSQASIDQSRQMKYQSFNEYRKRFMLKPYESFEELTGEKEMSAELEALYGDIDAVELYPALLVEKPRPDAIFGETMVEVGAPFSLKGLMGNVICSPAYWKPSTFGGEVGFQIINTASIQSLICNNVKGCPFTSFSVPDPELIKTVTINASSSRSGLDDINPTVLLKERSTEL

[2] = biological target: T2, Prostaglandin G/H synthase 1 (Ovis aries) (UniProt P05979); assay: Inhibition of ovine COX1 at 50 uM using arachidonic acid as substrate by ELISA
T2 sequence (whole entry): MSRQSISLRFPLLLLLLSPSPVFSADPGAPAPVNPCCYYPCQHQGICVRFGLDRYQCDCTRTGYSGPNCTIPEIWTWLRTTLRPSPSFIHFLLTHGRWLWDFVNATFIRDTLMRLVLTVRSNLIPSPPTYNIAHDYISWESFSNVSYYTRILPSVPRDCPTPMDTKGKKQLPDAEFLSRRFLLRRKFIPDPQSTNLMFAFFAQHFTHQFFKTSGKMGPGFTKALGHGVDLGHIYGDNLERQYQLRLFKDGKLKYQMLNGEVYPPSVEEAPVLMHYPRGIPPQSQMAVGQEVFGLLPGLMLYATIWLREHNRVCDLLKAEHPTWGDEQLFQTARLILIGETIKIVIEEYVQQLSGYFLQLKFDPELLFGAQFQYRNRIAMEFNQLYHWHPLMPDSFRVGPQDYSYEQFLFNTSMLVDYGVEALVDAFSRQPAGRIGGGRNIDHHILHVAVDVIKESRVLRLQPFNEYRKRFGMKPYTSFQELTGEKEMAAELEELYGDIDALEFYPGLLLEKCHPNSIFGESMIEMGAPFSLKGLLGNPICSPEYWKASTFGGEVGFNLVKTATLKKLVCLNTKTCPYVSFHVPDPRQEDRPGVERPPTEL

[3] = Antioxidant activity assessed as DPPH radical scavenging activity measured at 30 to 60 mins by UV-Visible spectrophotometric method; assay type: functional
Squalene synthase = biological target: T3, Squalene synthase (Rattus norvegicus, UniProt Q02769); assay: Inhibition of SQS in rat microsomes using [3H]-FPP as substrate preincubated for 10 mins followed by substrate addition measured after 30 mins by scintillation counting
T3 sequence (Q02769 whole entry): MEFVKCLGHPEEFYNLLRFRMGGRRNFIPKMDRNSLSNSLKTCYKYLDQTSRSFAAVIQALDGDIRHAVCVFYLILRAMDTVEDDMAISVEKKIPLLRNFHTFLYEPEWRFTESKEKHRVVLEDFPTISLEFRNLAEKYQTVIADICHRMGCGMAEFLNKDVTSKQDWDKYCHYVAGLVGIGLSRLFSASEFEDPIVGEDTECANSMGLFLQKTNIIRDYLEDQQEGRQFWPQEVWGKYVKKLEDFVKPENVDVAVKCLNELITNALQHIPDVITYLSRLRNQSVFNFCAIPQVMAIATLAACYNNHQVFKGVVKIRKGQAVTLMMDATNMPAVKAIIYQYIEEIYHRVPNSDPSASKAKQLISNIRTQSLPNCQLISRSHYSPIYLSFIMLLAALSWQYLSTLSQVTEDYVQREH

[4] = biological target: T2, Prostaglandin G/H synthase 1 (Ovis aries); assay: Inhibition of ovine COX1 at 20 uM using arachidonic acid as substrate by ELISA
Mus musculus [5] = assay: Antihyperlipidemic activity in HDF/STZ-induced obesity-diabetes type 2 SKH-2 mouse model assessed as decrease in plasma LDL levels at 56 umol/kg, ip administered twice daily measured on day 22 and day 53 relative to untreated control; assay type: functional; design: scale not given: the % may be the effect or the level left
Mus musculus [6] = assay: Anti-diabetic activity in HDF/STZ-induced obesity-diabetes type 2 SKH-2 mouse model assessed as reversal of body weight gain at 56 umol/kg, ip administered twice daily until 23 days measured once per week; assay type: functional, organism-based
Mus musculus [7] = assay: Anti-diabetic activity in HDF/STZ-induced obesity-diabetes type 2 SKH-2 mouse model assessed as reversal of body weight gain at 56 umol/kg, ip administered twice daily until 53 days measured once per week from 28th to 53 day post STZ challenge; assay type: functional, organism-based
Mus musculus [8] = assay: Antihyperlipidemic activity in HDF/STZ-induced obesity-diabetes type 2 SKH-2 mouse model assessed as decrease in plasma triglyceride levels at 56 umol/kg, ip administered twice daily measured on day 22 and day 53 relative to untreated control; assay type: functional
Mus musculus [9] = assay: Antihyperlipidemic activity in HDF/STZ-induced obesity-diabetes type 2 SKH-2 mouse model assessed as increase in plasma HDL/LDL ratio at 56 umol/kg, ip administered twice daily measured on day 22 and day 53 relative to untreated control; assay type: functional
Mus musculus [10] = assay: Antihypercholesterolemic activity in HDF/STZ-induced obesity-diabetes type 2 SKH-2 mouse model assessed as increase in plasma HDL levels at 56 umol/kg, ip administered twice daily measured on day 22 and day 53 relative to untreated control; assay type: functional, organism-based
Mus musculus [11] = assay: Antihypercholesterolemic activity in HDF/STZ-induced obesity-diabetes type 2 SKH-2 mouse model assessed as decrease in plasma total cholestrol levels at 56 umol/kg, ip administered twice daily measured on day 22 and day 53 relative to untreated control; assay type: functional; design: scale not given: the % may be the effect or the level left
Mus musculus [12] = assay: Anti-diabetic activity in HDF/STZ-induced obesity-diabetes type 2 SKH-2 mouse model assessed as reversal of glucose increase at 56 umol/kg, ip administered twice daily until 53 days measured every 5 to 10 days from day 27 to 53; assay type: functional, organism-based

Row | SMILES | IC50 (Liver) [µM] | IC50 [3] [µM] | IC50 (Squalene synthase) [µM] | further results
1 | CN1CC(O)(c2ccc(/C=C/c3ccccc3)cc2)OC2CCCCC21 (centres undefined) | 45 | > 400 | – | inhibition [1]: inactive; inhibition [2]: inactive
2 | CN1CC(O)(c2ccccc2)Sc2ccccc21 (centres undefined) | 8.2 | 183 | 28 | –
3 | CN1CC(O)(c2ccc(-c3ccc(C(F)(F)F)cc3)cc2)Sc2ccccc21 (centres undefined) | 14 | 171 | 14 | –
4 | CN1CC(O)(c2ccc(-c3ccccc3)cc2)Oc2ccc(-c3ccccc3)cc21 (centres undefined) | 4.9 | > 400 | > 50 | –
5 | CN1CC(O)(c2ccc(-c3ccccc3)cc2)SC2CCCCC21 (centres undefined) | 83 | 271 | 16.5 | inhibition [4]: 89%
6 | Oc1ccc(/C=C/c2cc(O)cc(O)c2)cc1 [RESVERATROL] | 15 | 96 | > 50 | –
7 | CN1CC(O)(c2ccc(-c3cc(C(C)(C)C)c(O)c(C(C)(C)C)c3)cc2)OC2CCCCC21 (centres undefined) | 5.9 | > 400 | – | Activity (Mus musculus [5]): 95%; Activity (Mus musculus [6]): Active; Activity (Mus musculus [7]): Active; Activity (Mus musculus [8]): inactive; fold change (FC) (Mus musculus [9]): 7.5; Activity (Mus musculus [10]): inactive; Activity (Mus musculus [11]): 70%
8 | OC1(c2ccc(/C=C/c3ccccc3)cc2)CN2CCCCC2CO1 (centres undefined) | 42 | > 400 | – | inhibition [1]: inactive; inhibition [2]: inactive
9 | CN1CC(O)(c2ccc(-c3ccccc3)cc2)OC2CCCCC21 (centres undefined) | 450 | > 400 | – | –
10 | OC1(c2ccc(-c3ccccc3)cc2)CN2CCCCC2CO1 (centres undefined) | 350 | > 400 | 35 | –
11 | CN1CCOC(O)(c2ccc(/C=C/c3ccccc3)cc2)C1 (centres undefined) | 110 | > 400 | 7 | –
12 | CN1CC(O)(c2ccccc2)Oc2ccccc21 (centres undefined) | 7.6 | 152 | 50 | –
13 | CC(C)(Sc1cc(C(C)(C)C)c(O)c(C(C)(C)C)c1)Sc1cc(C(C)(C)C)c(O)c(C(C)(C)C)c1 [PROBUCOL] | > 1000 | 234 | – | –
14 | CN1CC(O)(c2ccc(-c3cc(C(C)(C)C)c(O)c(C(C)(C)C)c3)cc2)Sc2ccccc21 (centres undefined) | 6.5 | 34 | > 50 | Activity (Mus musculus [5]): 65%; Activity (Mus musculus [6]): inactive; inhibition [1]: inactive; Activity (Mus musculus [8]): 55%; inhibition [2]: inactive; fold change (FC) (Mus musculus [9]): 3; Activity (Mus musculus [10]): inactive; Activity (Mus musculus [12]): inactive; Activity (Mus musculus [11]): 31%
15 | CSc1ccccc1N(C)CC(=O)c1ccc(-c2ccccc2)cc1 | > 1000 | > 400 | > 50 | –
16 | CN1CCOC(O)(c2ccc(-c3ccccc3)cc2)C1 (centres undefined) | 300 | > 400 | 33 | inhibition [1]: 100%; inhibition [2]: 38%
17 | CN1CC(O)(c2ccc(-c3ccc(O)cc3)cc2)Sc2ccccc21 (centres undefined) | 15 | 44 | 8.5 | –
